Publication PMC5493200 (ACS infectious diseases, 2016)
In brackets after ≈: the same amount, converted by molar mass. Where two headings read alike, the source gives them in different places.

Assays:
M. tuberculosis H37Rv = assay: microbe, parasite or virus in culture; type: cell-based, Mycobacterium tuberculosis; conditions: for H37Rv MIC: Tables 1-4 and text; for MIC (H37Rv): Table 5
[1] = system: M. tuberculosis H37Rv Rv1258c knockout (KO); assay: microbe, parasite or virus in culture; type: cell-based; conditions: for Rv1258c KO MIC: Tables 1-4 and text, 7 days, 7H9 broth
[2] = biological target: Purified 70S M. smegmatis bacterial ribosomes (Mycolicibacterium smegmatis, UniProt A0QSG6); assay: Ribosomal translation inhibition; type: biochemical; conditions: inhibits luciferase activity by 50%
Rv1258c efflux pump = conditions: H37Rv MIC / Rv1258c KO MIC
[3] = heteroaryl ring of side chain; ref not given; cited from earlier work
M. bovis BCG = type: cell-based; conditions: average of 2–3 replicates, standard deviation in parenthesis
Protein binding, mouse = type: in vitro ADME
M. tuberculosis Erdman = assay: Mouse model of acute tuberculosis infection; type: in vivo; conditions: 200 mg/kg BID, 9 days, subcutaneous, vs control
[4] = Microsomal stability, human; type: in vitro ADME; conditions: human liver microsomes
[5] = Microsomal stability, mouse; type: in vitro ADME; conditions: mouse liver microsomes
Protein binding, human = type: in vitro ADME
HepG2 cells = assay: Mammalian cytotoxicity; type: cell-based
[6] = ref [18]; cited from earlier work
[7] = human liver microsomes; starred compounds; ref [4]; cited from earlier work
[8] = mouse liver microsomes; starred compounds; ref [4]; cited from earlier work

Purified 70S M. smegmatis bacterial ribosomes, sequence (A0QSG6 whole entry): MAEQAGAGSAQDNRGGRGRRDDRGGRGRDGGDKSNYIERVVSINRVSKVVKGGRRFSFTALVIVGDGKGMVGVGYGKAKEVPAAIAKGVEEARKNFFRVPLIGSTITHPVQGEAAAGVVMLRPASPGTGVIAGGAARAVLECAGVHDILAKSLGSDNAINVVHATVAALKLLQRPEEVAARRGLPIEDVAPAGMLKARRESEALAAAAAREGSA

CN[C@@H]1[C@H](O)[C@H](NC)[C@H]2O[C@]3(O)[C@H](O[C@@H]2[C@H]1O)O[C@H](C)C[C@H]3NC(=O)Cc1ncc[nH]1.Cl.Cl.Cl [Compound 21, 3′-Dihydro-3′-deoxy-3′(R)-(1H-imidazol-2-yl)acetylamino spectinomycin trihydrochloride]
H37Rv MIC (M. tuberculosis H37Rv): 12.5 µg/mL | Rv1258c KO MIC [1]: 6.3 µg/mL | Ribosome IC50 [2]: 0.56 µg/mL | Efflux Ratio (Rv1258c efflux pump): 2 | pKa [3]: 7.0

Br.Br.Br.CN[C@@H]1[C@H](O)[C@H](NC)[C@H]2O[C@]3(O)[C@H](O[C@@H]2[C@H]1O)O[C@H](C)C[C@H]3NC(=O)Cc1nc2ccccc2[nH]1 [Compound 27, 3′-Dihydro-3′-deoxy-3′(R)-(1H-benzo[d]imidazol-2-yl)acetylamino spectinomycin trihydrobroride]
Post Antibiotic Effect (M. bovis BCG): 137 h | MIC (H37Rv) (M. tuberculosis H37Rv): 1.6 µg/mL | H37Rv MIC (M. tuberculosis H37Rv): 1.6 µg/mL | Protein binding mouse (Protein binding, mouse): 12.1% | Rv1258c KO MIC [1]: 1.6 µg/mL | Ribosome IC50 [2]: 0.26 µg/mL | Reduction of bacterial load in lungs (M. tuberculosis Erdman; first new trial (Figure 3B)): 1.6 logs | Efflux Ratio (Rv1258c efflux pump): 1 | Microsomal stability t1/2 human [4]: >50 h | Microsomal stability t1/2 mouse [5]: >50 h | Protein binding human (Protein binding, human): 26.3% | Cytotoxicity (HepG2) (HepG2 cells): >400 µg/mL | pKa [3]: 5.6

Br.Br.Br.CN[C@@H]1[C@H](O)[C@H](NC)[C@H]2O[C@]3(O)[C@H](O[C@@H]2[C@H]1O)O[C@H](C)C[C@H]3NC(=O)Cc1cc(Cl)c(C)cn1 [Compound 47, 3′-Dihydro-3′-deoxy-3′(R)-(4-chloro-5-methylpyridin-2-yl)acetylamino spectinomycin trihydrobromide]
Post Antibiotic Effect (M. bovis BCG): 102 (15) h | MIC (H37Rv) (M. tuberculosis H37Rv): 0.8 µg/mL | H37Rv MIC (M. tuberculosis H37Rv): 0.8 µg/mL | Protein binding mouse (Protein binding, mouse): 42.7% | Phase II conjugative metabolism [6]: subject to some phase II conjugative metabolism | Rv1258c KO MIC [1]: 0.8 µg/mL | Ribosome IC50 [2]: 0.23 µg/mL | Reduction of bacterial load in lungs (M. tuberculosis Erdman; first new trial (Figure 3B)): more than 2 logs | Microsomal stability t1/2 human [4]: >50 h | Microsomal stability t1/2 mouse [5]: >50 h | Protein binding human (Protein binding, human): 43.9% | Cytotoxicity (HepG2) (HepG2 cells): >400 µg/mL

Br.Br.Br.CN[C@@H]1[C@H](O)[C@H](NC)[C@H]2O[C@]3(O)[C@H](O[C@@H]2[C@H]1O)O[C@H](C)C[C@H]3NC(=O)Cc1cc(Cl)c(OC)cn1 [Compound 48, 3′-Dihydro-3′-deoxy-3′(R)-(4-chloro-5-methoxypyridin-2-yl)acetylamino spectinomycin trihydrobromide]
Post Antibiotic Effect (M. bovis BCG): 72 (10) h | MIC (H37Rv) (M. tuberculosis H37Rv): 3.1 µg/mL | H37Rv MIC (M. tuberculosis H37Rv): 3.1 µg/mL | Protein binding mouse (Protein binding, mouse): 72.9% | Phase II conjugative metabolism [6]: subject to metabolism | Rv1258c KO MIC [1]: 3.1 µg/mL | Ribosome IC50 [2]: 0.42 µg/mL | Reduction of bacterial load in lungs (M. tuberculosis Erdman; second new trial (Figure 3C)): 1.6 log | Microsomal stability t1/2 human [4]: 6.3 h | Microsomal stability t1/2 mouse [5]: 5.5 h | Protein binding human (Protein binding, human): 61.6% | Cytotoxicity (HepG2) (HepG2 cells): >400 µg/mL

CN[C@@H]1[C@H](O)[C@H](NC)[C@H]2O[C@@]3(O)C(=O)C[C@@H](C)O[C@H]3O[C@@H]2[C@H]1O [SPC, Spectinomycin, reference compound]
MIC (M. tuberculosis H37Rv; Mycobacterium tuberculosis, H37RV, 168 h, read-out: H37Rv MIC): 100 µg/mL (≈ 301 µM) | MIC ([1]; Mycobacterium tuberculosis, H37RV, 168 h, read-out: Rv1258c KO MIC): 6.3 µg/mL (≈ 19 µM) | Microsomal stability t1/2 human [7]: 2.5 h | Efflux Ratio (Rv1258c efflux pump): 16 | Microsomal stability t1/2 mouse [8]: >10 h
